Values joined by “and” are separate entries in the source; they are usually repeats but may differ in a detail not shown here. Identical values can stand only once.
What was measured:
HIV-1 protease [1] = molecular target: T1, HIV-1 protease (Human immunodeficiency virus type 1 group M subtype B, UniProt P04585); test: biochemical; settings: for inhibition at 0.123 µM: read-out: HIV-1 Protease % Inhib, dose 0.123 uM; for inhibition at 0.37 µM: read-out: HIV-1 Protease % Inhib, dose 0.370 uM; for inhibition at 1.1 µM: read-out: HIV-1 Protease % Inhib, dose 1.100 uM; for inhibition at 3.3 µM: read-out: HIV-1 Protease % Inhib, dose 3.300 uM; for inhibition at 10 µM: read-out: HIV-1 Protease % Inhib, dose 10.000 uM; for inhibition at 30 µM: read-out: HIV-1 Protease % Inhib, dose 30.000 uM; for inhibition at 0.41 µM: read-out: HIV-1 Protease % Inhib, dose 0.410 uM; for inhibition at 1.23 µM: read-out: HIV-1 Protease % Inhib, dose 1.230 uM; for inhibition at 3.7 µM: read-out: HIV-1 Protease % Inhib, dose 3.700 uM; for inhibition at 11 µM: read-out: HIV-1 Protease % Inhib, dose 11.000 uM; for inhibition at 33 µM: read-out: HIV-1 Protease % Inhib, dose 33.000 uM; for inhibition at 100 µM: read-out: HIV-1 Protease % Inhib, dose 100.000 uM
Procedure, shortened: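 Percent inhibition derived from fluorescent cleavage product separated by filtration after streptavidin-bead capture of intact biotin/FITC substrate. Reaction: enzyme (10 μl, 0.1 μM stock) with substrate (20 μl, 0.2 μM stock) and compound, 1 h at room temperature in dark, pH 5.5 acetate buffer with 1.0 M NaCl and 0.05% NP-40.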

HIV-1 protease [2] = molecular target: T1, HIV-1 protease; test: biochemical; settings: read-out: HIV-1 FITC KI
Protocol: Determination of Ki values utilizes the same materials and equipment employed for percent inhibition studies. Two-fold serial dilutions are made for a given inhibitor from 2, 3 or 4 starting concentrations with a total of 24, 36 or 48 individual inhibitor concentrations. These dilutions are performed utilizing the BioMek robotics system. The assay consists of 10 μL of 40 nM HIV-1 protease, 10 μL of the various inhibitor concentrations, and 20 μL of 200 μM substrate (40 μL total). The reaction is allowed to proceed for 90 min at room temperature, terminated with 40 μL of avidin beads and processed (supra vide). An inhibitor with a known Ki is run in parallel to verify the validity of the assay. The data is processed utilizing a computer program employing a nonlinear least square analysis of the data to generate the Ki values.

Row | SMILES | inhibition at 0.123 µM (HIV-1 protease [1]) [%] | inhibition at 0.37 µM (HIV-1 protease [1]) [%] | inhibition at 1.1 µM (HIV-1 protease [1]) [%] | inhibition at 3.3 µM (HIV-1 protease [1]) [%] | inhibition at 10 µM (HIV-1 protease [1]) [%] | inhibition at 30 µM (HIV-1 protease [1]) [%] | Ki (HIV-1 protease [2]) | inhibition at 0.41 µM (HIV-1 protease [1]) [%] | inhibition at 1.23 µM (HIV-1 protease [1]) [%] | inhibition at 3.7 µM (HIV-1 protease [1]) [%] | inhibition at 11 µM (HIV-1 protease [1]) [%] | inhibition at 33 µM (HIV-1 protease [1]) [%] | inhibition at 100 µM (HIV-1 protease [1]) [%] | HIV-1 Protease % Inhib (HIV-1 protease [1]; dose 0.123 uM) [%] | HIV-1 Protease % Inhib (HIV-1 protease [1]; dose 0.370 uM) [%] | HIV-1 Protease % Inhib (HIV-1 protease [1]; dose 1.100 uM) [%] | HIV-1 Protease % Inhib (HIV-1 protease [1]; dose 3.300 uM) [%] | HIV-1 Protease % Inhib (HIV-1 protease [1]; dose 10.000 uM) [%] | HIV-1 Protease % Inhib (HIV-1 protease [1]; dose 30.000 uM) [%]
1 | COCCOCCOCCOc1ccc(S(=O)(=O)Nc2cccc(C(c3c(O)c4c(oc3=O)CCCCCC4)C3CC3)c2)cc1 (stereo not shown) [Example 415, Benzenesulfonamide, N-[3-[cyclopropyl(5,6,7,8,9,10-hexahydro-4-hydroxy-2-oxo-2H-cycloocta[b]pyran-3-yl)methyl]phenyl]-4-[2-[2-(2-methoxyethoxy)ethoxy]ethoxy]-] | 126 | 121 | 128 | 124 | 125 | 120 | 2.3 nM | – | – | – | – | – | – | – | – | – | – | – | –
2 | O=c1oc2c(c(O)c1C(C1CC1)C1CC1)CCCCCC2Cc1ccccc1 (stereo not shown) [Example 123, 10-Benzyl-3-dicyclopropylmethyl-4-hydroxy-5,6,7,8,9,10-hexahydro-cycloocta[b]pyran-2-one] | – | – | – | – | – | – | 260 nM | 23.7 | 59.1 | 82.5 | 88.3 | 83.9 | 78.9 | – | – | – | – | – | –
3 | O=c1oc2c(c(O)c1[C@H](c1ccccc1)C1CC1)CCCCCC2 [Example 229, (-)-(S)-3-(Cyclopropylphenylmethyl)-5,6,7,8,9,10-hexahydro-4-hydroxy-2H-cyclo[b]pyran-2-one] | 16.9 | 54.3 | 88.8 | 103 | 108 | 105 | 10.6 nM and 11.9 nM and 16.2 nM | – | – | – | – | – | – | – | – | – | – | – | –
4 | O=c1oc2c(c(O)c1C(c1cccc(NS(=O)(=O)c3c(F)c(F)c(F)c(F)c3F)c1)C1CC1)CCCCCC2 (stereo not shown) [Example 278, N-[3-[Cyclopropyl(5,6,7,8,9,10-hexahydro-4-hydroxy-2-oxo-2H-cycloocta[b]pyran-3-yl)methyl]phenyl]-2,3,4,5,6-pentafluoro-benzenesulfonamide] | 36.3 | 78.2 | 94.7 | 101 | 102 | 110 | 13.6 nM | – | – | – | – | – | – | – | – | – | – | – | –
5 | O=c1oc2c(c(O)c1C(c1ccccc1)C1CC1)CCCCCC2CC1CCOC1 (stereo not shown) [Example 133, 3-(Cyclopropyl-phenyl-methyl)-4-hydroxy-10-(tetrahydro-furan-3-ylmethyl)-5,6,7,8,9,10-hexahydro-cycloocta[b]pyran-2-one] | 19.1 | 71.2 | 97.9 | 101 | 101 | 99.5 | 12 nM | – | – | – | – | – | – | – | – | – | – | – | –
6 | O=c1oc2c(c(O)c1C(c1cccc(NS(=O)(=O)c3cccc(NCCO)c3)c1)C1CC1)CCCCCC2 (stereo not shown) [Example 355 (First Title Compound), N-[3-[Cyclopropyl(5,6,7,8,9,10-hexahydro4-hydroxy-2-oxo-2H-cycloocta[b]pyran-3-yl)methyl]phenyl]-3-[(2-ethanol)amino]-benzenesulfonamide] | 117 | 117 | 115 | 103 | 72.6 | 61.9 | 2.14 nM | – | – | – | – | – | – | – | – | – | – | – | –
7 | O=c1oc2c(c(O)c1C(c1cccc(NS(=O)(=O)c3cccc(N(CCO)CCO)c3)c1)C1CC1)CCCCCC2 (stereo not shown) [Example 355 (Second Title Compound), N-[3-[Cyclopropyl(5,6,7,8,9,10-hexahydro-4-hydroxy-2-oxo-2H-cycloocta[b]pyran-3-yl)methyl]phenyl]-3-[(bis-(2-ethanol))amino]-benzenesulfonamide] | 112 | 111 | 107 | 110 | 110 | 108 | 1.06 nM | – | – | – | – | – | – | – | – | – | – | – | –
8 | CCCC(c1cccc(NS(=O)(=O)c2ccc(C#N)cc2)c1)c1c(O)c2c(oc1=O)CCCCCC2 (stereo not shown) [Example 378, Benzenesulfonamide, 4-cyano-N-[3-[1-(5,6,7,8,9,10-hexahydro-4-hydroxy-2-oxo-2H-cycloocta[b]pyran-3-yl)butyl]phenyl]-] | 103 | 111 | 112 | 118 | 112 | 112 | 1.06 nM | – | – | – | – | – | – | – | – | – | – | – | –
9 | CCCC(c1cccc(NS(=O)(=O)c2ccc(C#N)cc2)c1)c1c(O)c2c(oc1=O)CCCCCC2 (single isomer, unassigned) [Example 439, (R or S)-Benzenesulfonamide, 4-cyano-N-[3-[1-(5,6,7,8,9,10-hexahydro-4-hydroxy-2-oxo-2H-cycloocta[b]pyran-3-yl)butyl]phenyl]-] | – | – | – | – | – | – | 3 nM | – | – | – | – | – | – | 60.96 | 68.15 | 92.17 | 92.32 | 96.45 | 94.26
10 | O=c1oc2c(c(O)c1C(c1ccccc1)C1CC1)CCCCCCC2 (stereo not shown) [Example 117, 3-(Cyclopropylphenylmethyl)-6,7,8,9,10,11-hexahydro-4-hydroxy-cyclonona[b]pyran-2(5H)-one] | – | – | – | – | – | – | 37 nM | 80.1 | 94 | 101 | 114 | 107 | 100 | – | – | – | – | – | –
11 | CC(C)CC(c1cccc(NS(=O)(=O)c2ccc(C#N)cc2)c1)c1c(O)c2c(oc1=O)CCCCCC2 (stereo not shown) [Example 426, Benzenesulfonamide, 4-cyano-N-[3-[1-(5,6,7,8,9,10-hexahydro-4-hydroxy-2-oxo-2H-cycloocta[b]pyran-3-yl)-3-methylbutyl]phenyl]-] | 102 | 117 | 109 | 102 | 102 | 106 | 1.48 nM | – | – | – | – | – | – | – | – | – | – | – | –
12 | Cc1ccc(S(=O)(=O)n2cncc2C[C@H](NC(=O)OC(C)(C)C)C(=O)Nc2cccc(C(c3c(O)c4c(oc3=O)CCCCCC4)C3CC3)c2)cc1 (stereo partly drawn) [Example 199, Carbamic acid, [2-[[3-[cyclopropyl(5,6,7,8,9,10-hexahydro-4-hydroxy-2-oxo-2H-cycloocta[b]pyran-3-yl)methyl]phenyl]amino]-1-[[1-(S)-[(4-methylphenyl)sulfonyl]-1H-imidazol-5-yl]methyl]-2-oxoethyl]-, 1,1-dimethylethyl ester] | 56 | 86.5 | 97.6 | 106 | 114 | 107 | 10.4 nM | – | – | – | – | – | – | – | – | – | – | – | –
13 | O=c1oc2c(c(O)c1C(c1cccc(NS(=O)(=O)c3cccc(N4CCCS4(=O)=O)c3)c1)C1CC1)CCCCCC2 (stereo not shown) [Example 357, N-[3-[Cyclopropyl[3-(2-isothiazolidinyl)phenyl]methyl-(5,6,7,8,9,10-hexahydro4-hydroxy-S,S'-dioxide)methyl]phenyl]-3-[(phenylsulfonyl)amino]4-2H-cycloocta[b]pyran2-one] | 104 | 97.2 | 101 | 98.3 | 96.8 | 89.6 | 0.62 nM | – | – | – | – | – | – | – | – | – | – | – | –

— patent US5686486A, “4-hydroxy-benzopyran-2-ones and 4-hydroxy-cycloalkyl[b]pyran-2-ones useful to treat retroviral infections” (priority 1995, dated 1997)
